{
  "source": "patent US10166225B2",
  "about": "“Method for treating osteoporosis” (Exelixis, Inc., priority 2011, dated 2019)",
  "tested_on": "rat ovariectomy (OVX) model",
  "test": "Short-term effects on body weight, uterine weight and bone turnover markers in the rat ovariectomy (OVX) model",
  "format": "in vivo, rat (Sprague-Dawley)",
  "set-up": "key to Body weight, change during the first week / Body weight, change during the in-life phase / Relative uterine weight at day 14 / Serum PINP levels, change during the in-life phase / Serum OC levels, change during the in-life phase / Serum CTX levels, change during the in-life phase / Serum TRACP 5b activity, change during the in-life phase: An upwards arrow (↑) indicates a statistically significant increase; a downwards arrow (↓) a statistically significant decrease; One asterisk (*) indicates a statistical significance with a p-value<0.05; two asterisks (**) with a p-value<0.01; three asterisks (***) with a p-value<0.001; NS=Non-significant",
  "conditions": "for Body weight, change during the first week / Body weight, change during the in-life phase / Relative uterine weight at day 14 / Serum CTX levels, change during the in-life phase / Serum OC levels, change during the in-life phase / Serum PINP levels, change during the in-life phase / Serum TRACP 5b activity, change during the in-life phase: OVX rats vs OVX vehicle",
  "excerpt": "The objective of this study was to investigate short-term effects of Compound 1 on biochemical serum markers of bone metabolism in a prevention study in a rat ovariectomy (OVX) model for postmenopausal osteoporosis. 17β-estradiol (E2) was used as a reference compound. The following five experimental groups were included in the study:\nEach group contained eight female rats (Sprague-Dawley) that were three months of age at the beginning of in-life phase of the study. Before the start of the in-life phase, animals were weighed, their blood samples were harvested, and animals were randomized to study groups by stratification according to body weight and serum levels of procollagen type I N-terminal propeptide (PINP). At the beginning of the in-life phase, animals were weighed and operated. Treatment was started one day after the operations and continued once a day for two weeks. Sterile water was used as vehicle in groups 1 and 2. Body weight was determined after one week of treatment and treatment doses were adjusted accordingly. After two weeks of treatment, animals were weighed, their blood samples were harvested, animals were terminated, and their relative uterine weight was determined. For analyzing short-term effects of treatments, levels of four bone metabolism biomarkers were determined in serum samples harvested before the start and at the end of the in-life phase. These biomarkers included PINP as a marker of bone formation, N-terminal mid-fragment of osteocalcin (OC) as a general marker of bone turnover, C terminal cross-linked telopeptides of type I collagen (CTX) as a marker of bone resorption, and tartrate-resistant acid phosphatase isoform 5b (TRACP 5b) as a marker of osteoclast number. Serum levels at day −7 were used as baseline levels and serum levels at day 14 as levels affected by operations and treatments.\nEach group contained eight female rats (Sprague-Dawley) that were three months of age at the beginning of in-life phase of the study. Animals were randomized to study groups by stratification according to their body weight and serum levels of procollagen type I N-terminal propeptide (PINP) measured one week before the start of the in-life phase (at day −7). At the beginning of the in-life phase (at day 0), animals were weighed, animals in groups 2-5 were ovariectomized, and animals in group 1 SHAM-operated. Treatment was started one day after the operations and continued once a day for two weeks (up to day 13). Sterile water was used as vehicle in groups 1 and 2. Body weight was determined at the beginning of the in-life phase (at day 0), one week after the start of the inlife phase (at day 7), and at the end of the in-life phase (at day 14). Treatment doses were adjusted according to the latest body weight obtained. After two weeks of treatment (at day 14), animals were weighed, their blood samples were harvested, animals were terminated, and their relative uterine weight was determined. For analyzing short-term effects of treatments, levels of four bone metabolism biomarkers were measured in serum samples harvested before the start of the in-life phase (at day −7) and at the end of the in-life phase (at day 14). These biochemical serum markers included PINP, N-terminal mid-fragment of osteocalcin (OC), C-terminal cross-linked telopeptides of type I collagen (CTX), and tartrate-resistant acid phosphatase isoform 5b (TRACP 5b). Serum levels obtained at day −7 were used as baseline levels and serum levels obtained at day 14 as levels affected by surgical operations and treatments.\nBiochemical markers of bone metabolism are useful tools for monitoring osteoporosis therapy and for prediction of fracture risk and long-term changes in bone mineral density (Cremers et al. 2008). […]",
  "key": {"[1]": {"conditions": "OVX rats, Compound 1 oral dose of 3 mg/kg/d, two weeks"}, "[2]": {"conditions": "OVX rats, Compound 1 oral doses of 1 and 3 mg/kg/d, two weeks"}},
  "data": [
    {"smiles": "COc1cc2nccc(Oc3ccc(NC(=O)C4(C(=O)Nc5ccc(F)cc5)CC4)cc3)c2cc1OC", "note": "[Compound 1, N-(4-{[6,7-bis(methyloxy)quinolin-4-yl]oxy}phenyl)-N′-(4-fluorophenyl)cyclopropane-1,1-dicarboxamide]", "values": [
      {"measurement": "Body weight, change during the first week", "setting": "cabozantinib 1 mg/kg/d p.o.", "value": "↓ *"},
      {"measurement": "Body weight, change during the in-life phase", "setting": "cabozantinib 1 mg/kg/d p.o.", "value": "↓ *"},
      {"measurement": "Relative uterine weight at day 14", "setting": "cabozantinib 1 mg/kg/d p.o.", "value": "NS"},
      {"measurement": "Serum CTX levels, change during the in-life phase", "setting": "cabozantinib 1 mg/kg/d p.o.", "value": "NS"},
      {"measurement": "Serum OC levels, change during the in-life phase", "setting": "cabozantinib 1 mg/kg/d p.o.", "value": "NS"},
      {"measurement": "Serum PINP levels, change during the in-life phase", "setting": "cabozantinib 1 mg/kg/d p.o.", "value": "NS"},
      {"measurement": "Serum TRACP 5b activity, change during the in-life phase", "setting": "cabozantinib 1 mg/kg/d p.o.", "value": "NS"},
      {"measurement": "Body weight, change during the first week", "setting": "cabozantinib 3 mg/kg/d p.o.", "value": "NS"},
      {"measurement": "Body weight, change during the in-life phase", "setting": "cabozantinib 3 mg/kg/d p.o.", "value": "NS"},
      {"measurement": "Relative uterine weight at day 14", "setting": "cabozantinib 3 mg/kg/d p.o.", "value": "NS"},
      {"measurement": "Serum CTX levels, change during the in-life phase", "setting": "cabozantinib 3 mg/kg/d p.o.", "value": "NS"},
      {"measurement": "Serum OC levels, change during the in-life phase", "setting": "cabozantinib 3 mg/kg/d p.o.", "value": "NS"},
      {"measurement": "Serum PINP levels, change during the in-life phase", "setting": "cabozantinib 3 mg/kg/d p.o.", "value": "↑ *"},
      {"measurement": "Serum TRACP 5b activity, change during the in-life phase", "setting": "cabozantinib 3 mg/kg/d p.o.", "value": "↓ *"},
      {"measurement": "OVX-induced gain in body weight", "setting": "OVX rats, Compound 1 oral dose of 1 mg/kg/d, two weeks", "value": "partially prevented"},
      {"measurement": "OVX-induced increase in serum PINP levels", "setting": "[1]", "value": "enhanced"},
      {"measurement": "OVX-induced reduction in serum TRACP 5b activity", "setting": "[1]", "value": "enhanced"},
      {"measurement": "OVX-induced increase in serum CTX levels", "setting": "[2]", "value": "did not affect"},
      {"measurement": "OVX-induced increase in serum OC levels", "setting": "[2]", "value": "did not affect"},
      {"measurement": "OVX-induced reduction in relative uterine weight", "setting": "[2]", "value": "did not affect"}
    ]}
  ]
}
